Measured values reported in paper PMC6225232, “Design, Synthesis and Biological Evaluation of Ligustrazine-Flavonoid Derivatives as Potential Anti-Tumor Agents” (Molecules : A Journal of Synthetic Chemistry and Natural …, 2018).

Assays:
Format in all cases: cell-based, human
HepG-2 = test: MTT cytotoxicity assay, HepG-2; settings: Homo sapiens, HepG2, 72 h
Method: (§1) Five kinds of tumor cell lines and one normal endothelial cell were routinely cultured respectively in RPMI 1640 medium supplemented with 10% (V/V) FBS and 1% (V/V) penicillin-streptomycin, incubated at 37 °C in a 5% CO2 containing incubator. The five tumor cell lines were plated onto 96-well sterile plates in 100 μL/well of medium at a density of 3.5 × 10^3 cells per well and incubated at 37 °C with 5% CO2 for 24 h. Then luteolin, baicalein, apigenin, chrysin, quercetin, fisetin, genistein, daidzein, naringenin, DDP and compounds 10–25 were added at various concentrations (5, 10, 20, 40, 50 μΜ). Each plate contained control group, blank group, drug group and positive group (DDP). After 72 h, 20 μL MTT in phosphate buffered saline (PBS, 5 mg/mL) was added to each well and the plates were incubated at 37 °C for 4 h, then removing the liquid and adding dimethyl sulfoxide (DMSO, 100 μL) to dissolve the MTT formazan. The optical density (OD) for each well was measured on a BIORAD 550 spectrophotometer plate reader (Bio-Gene Technology Ltd., Guangzhou, China) at a wavelength of 490 nm. All tests were carried out three times in parallel.

Bel-7402 = test: MTT cytotoxicity assay, Bel-7402
Method: as §1

HT-29 = test: MTT cytotoxicity assay, HT-29; settings: Homo sapiens, HT-29, 72 h
Method: as §1

MCF-7 = test: MTT cytotoxicity assay, MCF-7; settings: Homo sapiens, MCF7, 72 h
Method: as §1

HeLa = test: MTT cytotoxicity assay, HeLa; settings: Homo sapiens, 72 h
Method: as §1

HUVEC-12 = test: MTT cytotoxicity assay using HUVEC-12 cell
Method: Five kinds of tumor cell lines and one normal endothelial cell were routinely cultured respectively in RPMI 1640 medium supplemented with 10% (V/V) FBS and 1% (V/V) penicillin-streptomycin, incubated at 37 °C in a 5% CO2 containing incubator.
The HUVEC-12 cell were seeded in 96-well plates (6.0 × 10^3 cells/ well), and incubated at 37 °C in a 5% CO2 containing incubator. After 24 h, the medium was replaced with fresh medium containing the compounds to be tested. Compounds 14, 19 and DDP were added in final concentrations ranging from 2.5 to 40 μM. Each plate contained control group, blank group and drug group. After 24 h, 20 μL MTT was added to each well and the plates were incubated at 37 °C for 4 h, then removing the liquid and adding dimethyl sulfoxide (DMSO) (100 μL) to dissolve the MTT formazan. The optical density (OD) for each well was measured on a BIORAD 550 spectrophotometer plate reader at a wavelength of 490 nm. All tests were carried out three times in parallel. The proliferation inhibition rates of tumor cells were calculated by {1 − [OD490 (Drug group) − OD490 (Blank group)]/[OD490 (Control group) − OD490 (Blank group)]} × 100%.

Bel-7402 cells [1] = test: Morphological analysis using Giemsa and DAPI staining; settings: 72 h
Method: The Bel-7402 cells were plated onto 12-well sterile plates at a density of 2.4 × 10^4 cells per well and incubated at 37 °C in a 5% CO2 containing incubator. Then the cells were incubated in the presence of compound 14 at various concentrations (0, 10, 20, 40 μΜ) for 72 h. Then cells were washed with PBS twice, fixed with cold ethanol and 4% paraformaldehyde (pH = 7.4) for 10 min respectively and washed with PBS again. Then fixed cells were stained with 6% Giemsa solution or DAPI at the concentration of 1 mg/mL for 5 min in the dark. Finally, the cells washed with water and dried. The cell morphological changes were observed by fluorescent microscopy and images were captured by digital camera.

Bel-7402 cells [2] = test: Apoptosis analysis by flow cytometry, Annexin V-FITC/PI staining; settings: 72 h, control 5.4%
Method: The Bel-7402 cells were plated onto 6-well sterile plates (4.8 × 10^4 cells/well) and placed at 37 °C with 5% CO2 for 24 h. Then compound 14 at various concentrations (0, 5, 10, 20 μΜ) was added. After 72 h, all cells were collected respectively with the right amount of trypsin (without EDTA) digestion. Then the cells were washed with cold PBS twice and centrifuged at 1000 rpm for 5 min. The harvested cells were resuspended in 200 μL binding buffer, which contained 10 μL Annexin V-FITC and PI. After avoided light reaction for 15 min, the cells were analyzed with a flow cytometer.

For `Cc1nc(C)c(COc2ccc(/C=C/C(=O)c3c(O)cc(OCc4nc(C)c(C)nc4C)cc3OCc3nc(C)c(C)nc3C)cc2)nc1C` [Compound 14, (E)-1-(2-Hydroxy-4,6-bis((3,5,6-trimethylpyrazin-2-yl)methoxy)phenyl)-3-(4-((3,5,6-trimethylpyrazin-2-yl)methoxy)phenyl)prop-2-en-1-one], the IC50 (HepG-2) was 17.3 ± 0.47 µM, the IC50 (Bel-7402; 72 h) was 10.7 ± 1.12 µM and the IC50 (Bel-7402; Homo sapiens, Bel-7402, 72 h) was 10.5 ± 1.12 µM. The IC50 (HT-29) was 31.9 ± 1.96 µM, the IC50 (MCF-7) was 29.8 ± 2.18 µM and the IC50 (HeLa) was 25.1 ± 1.8 µM. For the same compound, the “Proliferation Rate (%) 2.5 μM” value (HUVEC-12; HUVEC-12, 24 h, 2.5 μM, negative = inhibition) was 1.62 ± 0.75%, the “Proliferation Rate (%) 5 μM” value (HUVEC-12; HUVEC-12, 24 h, 5 μM, negative = inhibition) was 1.99 ± 0.23% and the “Proliferation Rate (%) 10 μM” value (HUVEC-12; HUVEC-12, 24 h, 10 μM, negative = inhibition) was 14.84 ± 1.41%. The “Proliferation Rate (%) 20 μM” value (HUVEC-12; HUVEC-12, 24 h, 20 μM, negative = inhibition) was 16.71 ± 0.29%, the “Proliferation Rate (%) 40 μM” value (HUVEC-12; HUVEC-12, 24 h, 40 μM, negative = inhibition) was −2.32 ± 1.37% and the IC50 (HUVEC-12; Homo sapiens, MTT, 24 h) was greater than 40 µM. For the same compound, the “cell morphology, Giemsa staining” value (Bel-7402 cells [1]; Bel-7402, 40 μM) was “mainly cell fragments rather than complete cells”, the “cell morphology, DAPI staining” value (Bel-7402 cells [1]; Bel-7402, 10, 20, 40 μM) was “morphological features of apoptosis” and the “apoptosis ratio (early and late)” value (Bel-7402 cells [2]; Bel-7402, 10 μM) was 45.5%. The “apoptosis ratio (early and late)” value (Bel-7402 cells [2]; Bel-7402, 20 μM) was 54.6%.
